Results published in patent US20260193236A1 (Protego Biopharma, Inc., priority 2022, published 2026).

System: IRE1-XBP1s (XBP1-RLuc splicing reporter in HEK293 T-REx cells)
Test: IRE1-XBP1s activation assay (XBP1-RLuc splicing reporter, HEK293 T-REx cells, luminescence relative to thapsigargin)
Type: cell-based
Details: 18 h, compound 10 μM, HEK293 T-REx XBP1-RLuc reporter cells, relative to thapsigargin (Tg) 500 nM, read-out: Activity (IRE1-XBP1s activation, luminescence as % signal relative to thapsigargin, % Tg)
Protocol: IRE1-XBP1s activation Assay: HEK293 T-REx cells stably expressing the XBP1-RLuc splicing reporter were treated with an IRE1-XBP1s activator provided herein (10 μM) in the presence or absence of the IRE1 active site inhibitor 4μ8C (32 μM) for 18 h. Luminescence was shown as the percentage signal relative to thapsigargin (Tg) (500 nM, 18 h).

Q: `Cc1ccc(OCCN(C)C(=O)Cn2cc(NC(=O)CCOc3c(C)cc(F)cc3C)cn2)cc1` [Compound 58] was tested. Which activation at 10 µM did it give?
A: 30 to 50%

Q: For `C#CCCC1(CCC(=O)Nc2cncc(OCCC(=O)Nc3cnn(CC(=O)N(C)CCOc4ccc(C)cc4)c3)c2)N=N1` [Compound 236], which activation at 10 µM is on record?
A: < 30%

Q: How did the activation at 10 µM turn out when `Cc1nnc(OCCN(C)C(=O)Cn2cc(NC(=O)CCNc3ccc(F)nc3C)cn2)s1` [Compound 247] was run?
A: < 30%

Q: How did the activation at 10 µM turn out when `CN(CCOc1cc(Cl)ccn1)C(=O)Cn1cc(NC(=O)CCOc2ccccc2F)cn1` [Compound 47] was run?
A: < 30%

Q: `Cc1ccc(OCCN(C)C(=O)Cn2cc(NC(=O)CCNc3c(F)cncc3C3CC3)cn2)cc1` [Compound 250, 3-((3-cyclopropyl-5-fluoropyridin-4-yl)amino)-N-(1-(2-(methyl(2-(p-tolyloxy)ethyl)amino)-2-oxoethyl)-1H-pyrazol-4-yl)propanamide] was tested. Which activation at 10 µM did it give?
A: > 50%

Q: Which activation at 10 µM does the source give for `Cc1ccc(OC[C@@H](C)N(C)C(=O)Cn2cc(NC(=O)CCNc3ccnc(F)n3)cn2)cc1` [Compound 268] here?
A: > 50%

Q: `Cc1ccc(OCCN(C)C(=O)Cn2cc(NC(=O)CCNc3ccnc(Br)c3)cn2)cc1` [Compound 135] was tested. Which activation at 10 µM did it give?
A: 30 to 50%

Q: With `Cc1ccc(OCCN(C)C(=O)Cn2cc(NC(=O)CCNc3cncc(N)c3)cn2)cc1` [Compound 119] as the compound, how does the activation at 10 µM read?
A: < 30%

Q: Which activation at 10 µM does the source give for `Cc1ccc(OCCN(C)C(=O)Cn2cc(NC(=O)CCNc3ccc(F)nc3C)cn2)cn1` [Compound 243] here?
A: < 30%

Q: Which activation at 10 µM does the source give for `Cc1ccc(OCCN(C)C(=O)Cn2cc(NC(=O)C(CNc3ccc(F)nc3C)C3CCCCC3)cn2)cc1` (centres unmarked) [Compound 219] here?
A: 30 to 50%

Q: With `Cc1ccc(OCCN(C)C(=O)Cn2cc(NC(=O)[C@@H](C)CNc3ccc(F)nc3C)cn2)cc1` [Compound 220] as the compound, how does the activation at 10 µM read?
A: 30 to 50%

Q: How did the activation at 10 µM turn out when `Cc1ccc(OCCN(C)C(=O)Cn2cc(NC(=O)[C@@H](CNc3ccc(F)nc3C)C(C)C)cn2)cc1` [Compound 171] was run?
A: 30 to 50%

Q: How did the activation at 10 µM turn out when `Cc1ccc(OCCN(C)C(=O)Cn2cc(NC(=O)CCOc3ncccc3[N+](=O)[O-])cn2)cc1` [Compound 113] was run?
A: > 50%

Q: `Cc1ccc(OCCC(=O)Nc2cnn(CC(=O)N(C)CCOc3ncn(C)n3)c2)c(F)c1` [Compound 90] was tested. Which activation at 10 µM did it give?
A: < 30%

Q: Which activation at 10 µM does the source give for `Cc1ccc(OCCN(C)C(=O)Cn2cc(NC(=O)CCOc3cccc(N(C)C)c3)cn2)cc1` [Compound 38] here?
A: > 50%

Q: How did the activation at 10 µM turn out when `Cc1ccc(OCCN(C)C(=O)Cn2cc(NC(=O)CCNc3cnc(Cl)cn3)cn2)cc1` [Compound 127] was run?
A: > 50%

Q: With `Cc1ccc(OCCN(C)C(=O)Cn2cc(NC(=O)CNC(=O)c3ccncc3)cn2)cc1` [Compound 259] as the compound, how does the activation at 10 µM read?
A: < 30%

Q: With `Cc1ccc(OCCN(C)C(=O)Cn2cc(NC(=O)CCNc3c(Cl)cncc3Cl)cn2)cc1` [Compound 152] as the compound, how does the activation at 10 µM read?
A: > 50%

Q: Which activation at 10 µM does the source give for `Cc1ccc(OCCN(C)C(=O)Cn2cc(NC(=O)CCNc3ncc(-c4ncc(C)o4)cn3)cn2)cc1` [Compound 294, N-(1-(2-(methyl (2-(p-tolyloxy)ethyl)amino)-2-oxoethyl)-1H-pyrazol-4-yl)-3-((5-(5-methyloxazol-2-yl)pyrimidin-2-yl)amino)propanamide] here?
A: < 30%

Q: With `Cc1ccc(OCCN(C)C(=O)Cn2cc(NC(=O)CCNc3c(F)cnc(C)c3C)cn2)cc1` [Compound 215] as the compound, how does the activation at 10 µM read?
A: > 50%

Q: `Cc1ccc(OCCN(C)C(=O)Cn2cc(NC(=O)CCOc3ccnc(N)c3)cn2)cc1` [Compound 104] was tested. Which activation at 10 µM did it give?
A: > 50%

Q: Which activation at 10 µM does the source give for `Cc1ccc(OCCN(C)C(=O)Cn2cc(NC(=O)CCNc3nccc(F)n3)cn2)cc1` [Compound 139] here?
A: < 30%

Q: Which activation at 10 µM does the source give for `CN(CCOc1ccc(C(F)(F)F)cn1)C(=O)Cn1cc(NC(=O)CCOc2ccnc(N)c2)cn1` [Compound 95] here?
A: < 30%

Q: `Cc1ccc(OCCN(C)C(=O)Cn2cc(NC(=O)CCOc3ccc(F)nc3C)cn2)cc1` [Compound 10] was tested. Which activation at 10 µM did it give?
A: 30 to 50%

Q: For `COc1ccnc(NCCC(=O)Nc2cnn(CC(=O)N(C)CCOc3ccc(C)cc3)c2)c1` [Compound 175], which activation at 10 µM is on record?
A: 30 to 50%

Q: `Cc1ccc(OCCN(C)C(=O)Cn2cc(NC(=O)CCNc3cncc(Cl)n3)cn2)cc1` [Compound 151] was tested. Which activation at 10 µM did it give?
A: 30 to 50%
